# Measurements from patent US8293464B2, “Methods for reducing the internalization of viruses and identification of compounds effective thereof” (Universiteit Gent, priority 2008, dated 2012).
# Read-outs that look alike come from different tables or passages of the source.
# Assays:
# [1] = tested on: surface expressed viral antigens in FIPV infected monocytes; test: Internalization inhibition assay of surface expressed viral antigens (antigen-antibody complexes); format: cell-based, feline; settings: each inhibitor at its working concentration; for internalization of viral antigens: 30 min pre-incubation, 30 min with antibodies
# feline monocytes = test: Internalization assay of control ligands (beads, transferrin or albumin) in monocytes; format: cell-based; settings: inhibitor at working concentration; for internalization of a control ligand: control ligand not named
# Protocol: To test the effectiveness of all reagents, a suitable control was used in each experiment. Monocytes seeded on glass coverslips were pre-incubated for 30 minutes at 37° C. with 5% CO2 in the presence of one of the inhibitors. After treatment, the cells were incubated with biotinylated transferrin (Sigma-Aldrich GmbH) or fluorescent 1 μm polystyrene microspheres, FluoSpheres (Molecular Probes-Invitrogen), in presence of the inhibitor. Then, cells were fixed with 1% formaldehyde and permeabilized with 0.1% Triton X-100. The biotinylated transferrin was visualized by incubating the cells with streptavidin-FITC for 1 hour at 37° C. and cells incubated with fluorescent beads were incubated with phalloidin-Texas Red (Molecular Probes-Invitrogen) for 1 hour at 37° C. to visualize the lamellipodia. The glass coverslips were mounted on microscope slides using glycerin-DABCO and analyzed by confocal microscopy. […] Fluorescent beads were considered internalized when they were found inside the cortical actin labeling.
# HIV-1 NL4.3-eGFP = format: cell-based, Human Immunodeficiency Virus 1
# Protocol: In this experiment the Human Immunodeficiency Virus 1 (HIV-1) strain HIV-1 NL4.3-eGFP which is a lab strain with an eGFP reporter, was used to infect the human T-cell lymphoblatic lymphoma cell line SupT1. The percentage of eGFP positive cells measured at different time point was used as endpoint read out SupT1. ML-7 inhibitor was used at three different concentration: 0 (DMSO), 2,5 and 25 μM.
# SupT1 cells were at a concentration of 20000 cell/well in 200 μl of iMDM medium supplemented with 10% FCS, 1% penicillin/streptomycin and 1% L-glutamine, and were centrifuged at 300 g for 5 min at 4° C. Supernatant was removed and the cells were treated for 30 min with 100 μl of 0 (DMSO at 1/200 dilution in culture medium), 5 and 50 μM ML-7 inhibitor prepared in culture medium at 1/2000 and 1/200 dilution respectively. Meanwhile, HIV-1 NL4.3-eGFP virus was diluted in 10 fold dilution series in a separate plate (starting from 1/5 of stock, put on first well). 100 μl of each virus at every dilution was transferred to the corresponding well of the culture plate treated with the inhibitor. Four hours later approximately 100 μl was transferred to an
# Cells were centrifuged at 300 g for 5 min at 4° C. and approximately 100 μl was collected then stored at −80° C. for p24 measurement. Then 100 μl of cells infected with HIV1-NL4.3-eGFP virus was collected for the determination of the percentage of eGFP positive cells by FACS. Cells were resuspended in 200 μl of medium containing the adequate ML-7 inhibitor concentration. • 3. Day 7
# Cells were treated in the same way as in day 3
# During the course of the experiment cells were monitored carefully by microscopy to check for signs of infection such as: • eGFP expression • Syncytia formation • Cell death Results
# EHV (EEL cells) = test: Plaque reduction assay, entry of equine herpesvirus in EEL cells; format: cell-based
# hepatitis C virus (HCV) = test: Single infected cell reduction assay, entry of HCV in Huh7.5 hepatoma cells; format: cell-based, human hepatitis C virus; settings: 25 μM; Huh7.5 cells
# Protocol: The single infected cell reduction assay was used to determine the antiviral potency of to ML-7 on the entry of hepatitis C virus (HCV). • 1. Day 1
# Huh7.5 hepatoma cells were seeded in a 96-well plate at 10000 cells/well in 100 μl medium containing 0, 2.5 or 25 μM of ML-7. • 2. Day 2
# Virus was diluted in medium containing the different concentrations of the inhibitor to reach an end concentration of 2,22.10^6 IU/ml. 100 μl of this mixture was added to the wells and the plate was further incubated at 37° C. • 3. Day 6
# The cells were fixed and stained for NS5A (a HCV protein). Then the amount of HCV-positive clusters per well was counted. A cluster is defined as a group of positive cells that is separated from another cluster by at least 1 non-infected cell.
# PRRSV in MARC cells = test: Plaque reduction assay, entry of PRRSV in MARC cells; format: cell-based, Porcine reproductive and respiratory syndrome virus
# [2] = tested on: PRRSV in alveolar macrophage; format: cell-based, Porcine reproductive and respiratory syndrome virus
# HSV1 (VERO cells) = test: Plaque reduction assay, entry of HSV1 in VERO cells; format: cell-based, human herpes simplex virus 1
# FeHV (CrFK cells) = test: Plaque reduction assay, entry of feline herpesvirus in CrFK cells; format: cell-based
# FIPV Black (fcwf cells) = test: Plaque reduction assay, entry of FIPV Black in fcwf cells; format: cell-based, feline infectious peritonitis virus; settings: FIPV strain Black
# protein kinase C = settings: 50 and 100 μM; cited from earlier work
# FIPV 1146 (CrFK cells) = test: Plaque reduction assay, entry of FIPV 1146 in CrFK cells; format: cell-based, feline infectious peritonitis virus
# protein kinase A = settings: 50 and 100 μM; cited from earlier work
# FECV 1863 (CrFK cells) = test: Plaque reduction assay, entry of FECV 1863 in CrFK cells; format: cell-based, feline enteric coronavirus
# [3] = tested on: Porcine respiratory coronavirus (PRCV) in ST cells; test: Plaque reduction assay, entry of porcine respiratory coronavirus in ST cells; format: cell-based
# [4] = tested on: PrV infected porcine monocytes; test: Antibody-induced internalization of PrV viral proteins in porcine monocytes; format: cell-based; settings: 10 μM
# [5] = tested on: swine influenzavirus in MDCK cells; format: cell-based
# [6] = Day 3, 2.5 μM, virus dilution 10X
# [7] = Day 3, 2.5 μM, virus dilution 100X
# [8] = Day 3, 2.5 μM, virus dilution 1000X
# [9] = Day 3, 25 μM, virus dilution 10X
# [10] = Day 3, 25 μM, virus dilution 100X
# [11] = Day 3, 25 μM, virus dilution 1000X
# [12] = Day 7, 2.5 μM, virus dilution 10X
# [13] = Day 7, 2.5 μM, virus dilution 100X
# [14] = Day 7, 2.5 μM, virus dilution 1000X, at or below detection limit
# [15] = Day 7, 25 μM, virus dilution 10X
# [16] = Day 7, 25 μM, virus dilution 100X
# [17] = Day 7, 25 μM, virus dilution 1000X, at or below detection limit
# [18] = feline coronaviruses, FIG. 4, 50 and 100 μM
# [19] = feline coronaviruses, FIG. 4, higher concentrations
compound,measurement,setting,value
CN[C@@H]1C[C@H]2O[C@@](C)([C@@H]1OC)n1c3ccccc3c3c4c(c5c6ccccc6n2c5c31)C(=O)NC4 [staurosporine],internalization of viral antigens,[1],21±2 % of untreated control
same,internalization of the control ligand beads,feline monocytes,23±4 % of untreated control
O=S(=O)(NCCNC/C=C/c1ccc(Br)cc1)c1cccc2cnccc12 [H-89],internalization of viral antigens (in words),[1],unaffected
same,internalization of a control ligand,feline monocytes,33±29%
O=S(=O)(c1cccc2c(I)cccc12)N1CCCNCC1 [ML-7],protection from virus mediated cell death,HIV-1 NL4.3-eGFP; 25 μM,protected
same,Percentage of eGFP cells,HIV-1 NL4.3-eGFP; [6],2.98%
same,eGFP cells relative to 0 μM ML-7 (100%),HIV-1 NL4.3-eGFP; [6],(80%)
same,Percentage of eGFP cells,HIV-1 NL4.3-eGFP; [7],0.18%
same,eGFP cells relative to 0 μM ML-7 (100%),HIV-1 NL4.3-eGFP; [7],(46%)
same,Percentage of eGFP cells,HIV-1 NL4.3-eGFP; [8],0.04%
same,eGFP cells relative to 0 μM ML-7 (100%),HIV-1 NL4.3-eGFP; [8],(36%)
same,Percentage of eGFP cells,HIV-1 NL4.3-eGFP; [9],1.52%
same,eGFP cells relative to 0 μM ML-7 (100%),HIV-1 NL4.3-eGFP; [9],(41%)
same,Percentage of eGFP cells,HIV-1 NL4.3-eGFP; [10],0.19%
same,eGFP cells relative to 0 μM ML-7 (100%),HIV-1 NL4.3-eGFP; [10],(49%)
same,Percentage of eGFP cells,HIV-1 NL4.3-eGFP; [11],0.06%
same,eGFP cells relative to 0 μM ML-7 (100%),HIV-1 NL4.3-eGFP; [11],(54%)
same,Percentage of eGFP cells,HIV-1 NL4.3-eGFP; [12],35.8%
same,eGFP cells relative to 0 μM ML-7 (100%),HIV-1 NL4.3-eGFP; [12],(92%)
same,Percentage of eGFP cells,HIV-1 NL4.3-eGFP; [13],18.64%
same,eGFP cells relative to 0 μM ML-7 (100%),HIV-1 NL4.3-eGFP; [13],(44%)
same,Percentage of eGFP cells,HIV-1 NL4.3-eGFP; [14],0.95%
same,eGFP cells relative to 0 μM ML-7 (100%),HIV-1 NL4.3-eGFP; [14],(3160%)°
same,Percentage of eGFP cells,HIV-1 NL4.3-eGFP; [15],1.13%
same,eGFP cells relative to 0 μM ML-7 (100%),HIV-1 NL4.3-eGFP; [15],(3%)
same,Percentage of eGFP cells,HIV-1 NL4.3-eGFP; [16],0.14%
same,eGFP cells relative to 0 μM ML-7 (100%),HIV-1 NL4.3-eGFP; [16],(0.3%)
same,Percentage of eGFP cells,HIV-1 NL4.3-eGFP; [17],0.06%
same,eGFP cells relative to 0 μM ML-7 (100%),HIV-1 NL4.3-eGFP; [17],(200%)
same,inhibition of HIV-1 NL4.3-eGFP infection,HIV-1 NL4.3-eGFP; SupT1 cells,strong inhibition
same,toxic effect on cells,HIV-1 NL4.3-eGFP; SupT1 cells,No toxic effect
same,virus induced syncytia,"HIV-1 NL4.3-eGFP; high concentration, data not shown",inhibited completely
same,protection from virus mediated cell death,HIV-1 NL4.3-eGFP; intermediate inhibitor concentration,mild
same,additional effect at high concentration,EHV (EEL cells); 100 μM,additional inhibitory effect
same,"plaques, % of the untreated control","EHV (EEL cells); 1,56 μM",86 % of the untreated control
same,internalization of viral antigens,[1],12±21 % of untreated control
same,"amount of infected clusters, % of the untreated control",hepatitis C virus (HCV),31 % of the untreated control
same,effect on entry,PRRSV in MARC cells,activating effect instead of an inhibiting effect
same,"number of plaques, % of the control","[2]; 0,78 μM",68 % of the control
same,further reduction at the higher concentrations,[2]; higher concentrations,no further reduction
same,"plaques, % of the untreated control","HSV1 (VERO cells); 1,56 μM",81 % of the untreated control
same,additional effect at high concentration,HSV1 (VERO cells); 25 and 100 μM,additional effect
same,additional effect at high concentration,FeHV (CrFK cells); 100 μM,additional inhibitory effect
same,"plaques, % of the untreated control","FeHV (CrFK cells); 1,56 μM",79 % of the untreated control
same,effect on the entry process,FIPV Black (fcwf cells),little effect
same,block of protein kinase C,protein kinase C,can also block
same,"reduction of entry, % of the control","FIPV 1146 (CrFK cells); FIPV on CrFK cells, 3,13 μM",88 % of the control
same,inhibitory effect on entry at the highest concentrations,FIPV 1146 (CrFK cells); [18],inhibitory effect increased rapidly
same,inhibitory effect on entry at higher concentrations,FIPV 1146 (CrFK cells); [19],inhibitory effect seemed to be lost again
same,internalization of the control ligand beads,feline monocytes,11±5 % of untreated control
same,block of protein kinase A,protein kinase A,can also block
same,"reduction of entry, % of the control","FECV 1863 (CrFK cells); FECV on CrFK cells, 1,56 μM",73%
same,inhibitory effect on entry at the highest concentrations,FECV 1863 (CrFK cells); [18],inhibitory effect increased rapidly
same,inhibitory effect on entry at higher concentrations,FECV 1863 (CrFK cells); [19],inhibitory effect seemed to be lost again
same,"number of plaques, % of the untreated control",[3]; 50 μM,about 40 % of the untreated control
same,"entry (plaque formation), % of the untreated control","[3]; 1,56 μM",68 % of the untreated control
same,inhibitory effect at higher concentrations,[3]; higher concentrations (up to 6 μM),inhibitory effect is lost again
same,antibody-induced internalization of PrV viral proteins,[4],can be inhibited
same,"number of plaques, % of the control","[5]; 3,13 μM",76 % of the control
same,further reduction at the higher concentrations,[5]; higher concentrations,no further reduction
COc1ccc(S(=O)(=O)N(CCO)c2ccccc2CN(C)C/C=C/c2ccc(Cl)cc2)cc1 [KN-93],internalization of viral antigens (in words),[1],unaffected
same,internalization of a control ligand,feline monocytes,23±16%
CN(N=O)c1cc(O)ccc1O [dephostatin],internalization of viral antigens,[1],96±23 % of untreated control
same,internalization of the control ligand beads,feline monocytes,2±3 % of untreated control
